The text below walks through data of the NIST ThermoML archive (doi:10.1016/j.jct.2006.02.001).

Where “and” joins values, the source holds several entries; their conditions need not be identical. Identical values can stand only once. Numbers after ± are expanded uncertainties.

The conditions of series [1]: 101 kPa, Liquid.
Series [2] can be described thus: refractive index (Na D-line) (dimensionless). Conditions: 101.33 kPa, Liquid.

For orientation: mass density means the mass of a sample divided by its volume. For orientation: refractive index means a measure of how strongly the sample bends light. With `Cc1cc(C)cc(C)c1` [1,3,5-trimethylbenzene], the mass density in series [1] (288.15 K) is listed as 869.17 ± 0.97 kg/m3; in series [1] (293.15 K), 865.07 ± 0.98 kg/m3; in series [1] (298.15 K) it was 861.06 ± 1 kg/m3; in series [1] (303.15 K) it was 856.95 ± 1 kg/m3. Moreover, the refractive index was determined as 1.5045 ± 0.0097 in series [2] (288.15 K), 1.4993 ± 0.0096 in series [2] (293.15 K), 1.4976 ± 0.0096 in series [2] (298.15 K) and 1.4948 ± 0.0096 in series [2] (303.15 K).
`Cc1cccc(C)c1` [1,3-dimethylbenzene]: the mass density in series [1] (288.15 K) turned out to be 868.32 ± 0.89 kg/m3; in series [1] (293.15 K), 864.05 ± 0.91 kg/m3; in series [1] (298.15 K), 859.77 ± 0.93 kg/m3; in series [1] (303.15 K), 855.47 ± 0.95 kg/m3. Also, the refractive index worked out at 1.4997 ± 0.0096 in series [2] (288.15 K), 1.4973 ± 0.0096 in series [2] (293.15 K), 1.4944 ± 0.0096 in series [2] (298.15 K) and 1.4925 ± 0.0096 in series [2] (303.15 K).
On to `Cc1ccc(C)cc1` [1,4-dimethylbenzene], for which the mass density in series [1] (288.15 K) is given as 865.25 ± 0.91 kg/m3; in series [1] (293.15 K), 860.92 ± 0.93 kg/m3; in series [1] (298.15 K), 856.62 ± 0.94 kg/m3; in series [1] (303.15 K), 852.25 ± 0.96 kg/m3. Also, the refractive index in series [2] (288.15 K) is on record as 1.4983 ± 0.0096; in series [2] (293.15 K) it was 1.4958 ± 0.0096; in series [2] (298.15 K), 1.4929 ± 0.0096; in series [2] (303.15 K) it was 1.4915 ± 0.0096.
Regarding `COc1ccccc1` [anisole], the mass density is 998.44 ± 1.4 kg/m3 in series [1] (288.15 K), 993.65 ± 1.5 kg/m3 in series [1] (293.15 K), 989.15 ± 1.6 kg/m3 in series [1] (298.15 K) and 984.37 ± 1.6 kg/m3 in series [1] (303.15 K). In addition, the refractive index in series [2] (288.15 K) was 1.5256 ± 0.0097; in series [2] (293.15 K), 1.5172 ± 0.0097 and 1.5169 ± 0.0097; in series [2] (298.15 K), 1.5141 ± 0.0096; in series [2] (303.15 K), 1.5117 ± 0.0096.
With `c1ccccc1` [benzene], the mass density in series [1] (288.15 K) turned out to be 884.11 ± 3.2 kg/m3; in series [1] (293.15 K), 876.53 ± 3.3 kg/m3; in series [1] (298.15 K), 873.6 ± 3.4 kg/m3; in series [1] (303.15 K), 868.23 ± 3.5 kg/m3. The refractive index was determined as 1.505 ± 0.0096 in series [2] (288.15 K), 1.5011 ± 0.0096 in series [2] (293.15 K), 1.4979 ± 0.0097 in series [2] (298.15 K) and 1.4849 ± 0.0099 in series [2] (303.15 K).
As for `Cc1ccccc1` [toluene], the mass density in series [1] (288.15 K) stood at 871.41 ± 0.84 kg/m3; in series [1] (293.15 K), 866.87 ± 0.86 kg/m3; in series [1] (298.15 K) it was 862.2 ± 0.88 kg/m3; in series [1] (303.15 K), 857.46 ± 0.9 kg/m3. The refractive index was determined as 1.4996 ± 0.0096 in series [2] (288.15 K), 1.497 ± 0.0096 in series [2] (293.15 K), 1.4944 ± 0.0096 in series [2] (298.15 K) and 1.4918 ± 0.0096 in series [2] (303.15 K).
